Values joined by “and” are separate entries in the source; they are usually repeats but may differ in a detail not shown here. Identical values can stand only once. Like-named read-outs stand apart in the source and are kept apart here.
Tests used:
mCB1R = target: T1, mCB1R (Mus musculus, UniProt P47746); assay: biochemical; details: for Emax: read-out: Emax cAMP mCB1R
T1 construct: from tissue; host or cells: brain of male C57BL/6J mice

human NAPE-PLD = target: T2, human NAPE-PLD (Homo sapiens, UniProt Q6IQ20); assay: NAPE-PLD inhibition; format: biochemical; details: for inhibition at 10 µM: read-out: NAPE-PLD % inhibition at 10 µM ± SD
T2 construct: Full length human cDNA NAPE-PLD was obtained from Natsuo Ueda; expressed in transfected cells; host or cells: HEK293T (transient), membrane fraction
Method: Full length human cDNA NAPE-PLD was obtained from Natsuo Ueda[58] and cloned into mammalian expression vector pcDNA3.1, containing a C-terminal Flag-tag and genes for ampicillin and neomycin resistance. All plasmids were grown in XL-10 Z-competent cells and prepped (Maxi Prep, Qiagen). Sequence analysis for the confirmation of the sequences was performed at the Leiden Genome Technology Centre.
HEK293T cells (source: Dutch Cancer Institute) were cultured at 37 °C and 7% CO2 in DMEM with glutamax, penicillin (100 μg ml^−1), streptomycin (100 μg ml^−1) and 10% New Born Calf Serum iron supplemented (Hyclone SH30072.03). Cells were passaged twice a week to appropriate confluence. Twenty-four hours before transfection 10^7 cells were seeded on a 15 cm dish. Two hours before transfection, the medium was refreshed. Transfection is performed with PEI in a ratio of 3:1 with human NAPE-PLD or Mock pcDNA3.1Neo, 20 μg per dish. Medium is refreshed after 24 h and cells are harvested after 72 h. Cell suspensions are centrifuged at 1,000g for 10 min, supernatant removed and pellets frozen at −80 °C until further use.
Cell pellets are re-suspended in lysis buffer 1: 20 mM Hepes, 2 mM DTT, 0.25 M sucrose, 1 mM MgCl2, 2.5 U ml^−1 benzonase and incubated 30 min on ice. The cytosolic fraction (supernatant) is separated from the membranes by ultra-centrifugation (32,000 rpm for 30 min 100,000g). The pellet is resuspended in buffer 2: 20 mM Hepes, 2 mM DTT (membrane fraction). All samples are stored at −80 °C. Enzyme concentrations are determined using a Bradford assay.
The membrane protein fraction from transient overexpression of NAPE-PLD in HEK293T cells was diluted to 0.4 mg ml^−1 in assay buffer: 50 mM Tris-HCl (pH 7.5), 0.02% Triton X-100, 150 mM NaCl (ref. [60]). […] Relevant concentrations of compounds are prepared in DMSO. The assay is performed in a dark Greiner 96-well plate, end volume 100 μl. The compound or DMSO is incubated with membrane protein lysate (final concentration 0.04 mg ml^−1) for 30 min at 37 °C. A sample without membrane protein lysate is incorporated for background subtraction. Then, substrate is added (final concentration 1 μM) and the measurement is started immediately on a TECAN infinite M1000 pro at 37 °C (excitation 485 nm, emission 535 nm), scanning every 2 min for 1 h.

5-HT2B (h) = target: T3, 5-HT2B (h) (Homo sapiens, UniProt P41595); assay: CEREP panel; format: binding; details: for inhibition at 10 µM: read-out: % inhibition 5-HT2B (h)
T3 construct: CEREP (contract assay)

mCB2R [1] = target: T4, mCB2R (Mus musculus, UniProt P47936); assay: biochemical; format: binding; set-up: from tissue; host or cells: spleen of male C57BL/6J mice
mCB2R [2] = target: T4, mCB2R; assay: biochemical; format: biochemical; set-up: from tissue; host or cells: spleen of male C57BL/6J mice; details: for Emax: read-out: Emax cAMP mCB2R; for CB2R Selectivity cAMP (mouse): 10^(pEC50 CB2R-pEC50 CB1R)
hCB2R [3] = target: T5, hCB2R (Homo sapiens, UniProt P34972); assay: biochemical; format: biochemical; set-up: expressed in transfected cells; host or cells: Flp-In-293 (Invitrogen #R750-07), pcDNA5/FRT; details: for Emax: read-out: Emax ± SEM GTPγS hCB2R
hCB2R [4] = target: T5, hCB2R; assay: cell-based; format: cell-based; set-up: expressed in transfected cells; host or cells: Flp-In-293 (Invitrogen #R750-07), pcDNA5/FRT; details: for Emax: read-out: Emax ± SEM pERK hCB2R
[5] = mouse spleen membranes, read-out: pKi ± SEM mCB2R (converted)
[6] = mouse spleen, read-out: pEC50 ± SEM cAMP mCB2R (converted)
[7] = normalized to 10 µM CP55940, negative = inverse agonism

T1 sequence (P47746 whole entry): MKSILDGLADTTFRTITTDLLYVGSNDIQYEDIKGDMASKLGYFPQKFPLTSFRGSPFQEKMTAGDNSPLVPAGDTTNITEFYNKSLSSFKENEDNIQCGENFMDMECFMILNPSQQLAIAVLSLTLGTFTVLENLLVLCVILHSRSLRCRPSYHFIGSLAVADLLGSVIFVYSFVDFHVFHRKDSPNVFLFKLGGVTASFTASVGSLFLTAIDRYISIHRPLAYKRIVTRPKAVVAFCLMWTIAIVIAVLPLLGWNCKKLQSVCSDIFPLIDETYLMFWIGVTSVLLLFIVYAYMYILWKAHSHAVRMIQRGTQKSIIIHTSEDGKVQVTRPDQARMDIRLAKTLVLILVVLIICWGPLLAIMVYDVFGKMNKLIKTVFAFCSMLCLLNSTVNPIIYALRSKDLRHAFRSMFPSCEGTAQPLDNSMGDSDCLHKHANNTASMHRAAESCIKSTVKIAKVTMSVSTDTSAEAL
T3 sequence (P41595 whole entry): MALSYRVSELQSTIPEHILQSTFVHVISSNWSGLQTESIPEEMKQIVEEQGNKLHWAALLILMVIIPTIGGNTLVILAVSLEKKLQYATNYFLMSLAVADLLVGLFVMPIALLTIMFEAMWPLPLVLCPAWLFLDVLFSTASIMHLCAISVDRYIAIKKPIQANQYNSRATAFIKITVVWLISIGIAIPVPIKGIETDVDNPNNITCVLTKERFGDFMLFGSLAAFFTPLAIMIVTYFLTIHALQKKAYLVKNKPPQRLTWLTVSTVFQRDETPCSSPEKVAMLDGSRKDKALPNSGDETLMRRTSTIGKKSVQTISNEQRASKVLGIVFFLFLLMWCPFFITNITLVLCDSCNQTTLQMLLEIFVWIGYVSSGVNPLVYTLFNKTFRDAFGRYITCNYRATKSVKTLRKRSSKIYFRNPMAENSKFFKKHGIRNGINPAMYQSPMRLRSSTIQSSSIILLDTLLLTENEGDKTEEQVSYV
T5 sequence (P34972 whole entry): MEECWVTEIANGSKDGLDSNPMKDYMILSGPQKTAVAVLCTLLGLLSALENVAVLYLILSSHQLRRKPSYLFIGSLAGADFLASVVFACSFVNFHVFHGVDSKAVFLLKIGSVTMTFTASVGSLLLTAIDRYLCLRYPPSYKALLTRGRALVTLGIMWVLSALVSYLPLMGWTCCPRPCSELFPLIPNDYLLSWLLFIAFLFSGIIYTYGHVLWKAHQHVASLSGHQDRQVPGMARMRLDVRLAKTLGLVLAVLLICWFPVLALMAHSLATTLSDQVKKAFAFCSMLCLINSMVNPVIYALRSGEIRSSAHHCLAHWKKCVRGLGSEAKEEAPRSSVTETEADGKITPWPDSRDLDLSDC
T4 sequence (P47936 whole entry): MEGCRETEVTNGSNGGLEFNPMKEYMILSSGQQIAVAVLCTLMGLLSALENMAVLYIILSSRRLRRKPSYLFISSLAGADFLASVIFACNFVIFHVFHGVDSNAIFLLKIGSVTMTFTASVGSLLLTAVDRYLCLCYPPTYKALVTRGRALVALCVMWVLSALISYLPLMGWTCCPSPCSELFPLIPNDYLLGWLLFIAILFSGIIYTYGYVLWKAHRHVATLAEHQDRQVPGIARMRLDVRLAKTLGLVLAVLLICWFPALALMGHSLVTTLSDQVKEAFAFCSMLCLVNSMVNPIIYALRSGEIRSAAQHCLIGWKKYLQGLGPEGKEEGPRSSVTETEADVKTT
T2 sequence (Q6IQ20 whole entry): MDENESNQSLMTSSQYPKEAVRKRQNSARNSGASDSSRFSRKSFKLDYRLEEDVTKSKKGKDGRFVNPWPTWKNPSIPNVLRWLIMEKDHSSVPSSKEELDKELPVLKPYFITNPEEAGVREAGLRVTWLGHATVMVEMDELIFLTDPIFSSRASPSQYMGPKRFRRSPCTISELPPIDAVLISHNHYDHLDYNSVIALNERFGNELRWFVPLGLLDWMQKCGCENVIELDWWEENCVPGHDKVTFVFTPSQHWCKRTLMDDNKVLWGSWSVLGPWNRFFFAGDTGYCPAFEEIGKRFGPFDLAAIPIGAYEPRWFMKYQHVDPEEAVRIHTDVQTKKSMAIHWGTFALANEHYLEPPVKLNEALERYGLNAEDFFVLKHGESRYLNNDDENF

Row | Compound | Emax cAMP mCB1R (mCB1R) | NAPE-PLD % inhibition at 10 µM ± SD (human NAPE-PLD) [%] | % inhibition 5-HT2B (h) (5-HT2B (h); 10 µM) [%] | pKi ± SEM mCB2R (mCB2R [1]; mouse spleen membranes) | Emax cAMP mCB2R (mCB2R [2]) | pEC50 ± SEM cAMP mCB2R (mCB2R [2]; mouse spleen) | Emax ± SEM GTPγS hCB2R (hCB2R [3]) | pEC50 ± SEM GTPγS hCB2R (hCB2R [3]) | Emax ± SEM pERK hCB2R (hCB2R [4]) | pEC50 ± SEM pERK hCB2R (hCB2R [4]) | inhibition at 10 µM (human NAPE-PLD) [%] | pEC50 ± SEM cAMP mCB1R (mCB1R; mouse brain) | Emax cAMP mCB2R (mCB2R [2]; normalized to 10 µM CP55940) [%] | also measured
1 | CCCC(C)(C)c1ccc2c(c1)OC(C)(C)[C@@H]1CC=C(C)C[C@@H]21 [JWH133] | 11 | 3 ± 4 | 3 | 7.69 ± 0.23 | 95 | 7.75 ± 0.33 | 61 ± 15 | 6.96 ± 0.35 | 96 ± 13 | 6.19 ± 0.07 |  |  |  | pEC50 ± SEM cAMP mCB1R (mCB1R): < 5; CB2R Selectivity (binding, mouse) (mCB2R [1]): 40 fold; hCB2R Selectivity GTPγS (hCB2R [3]): 0.4
2 | CCCCC/C=C\C/C=C\C/C=C\C/C=C\CCCC(=O)NCCO [Anandamide, N-arachidonoylethanolamine] |  |  |  |  |  |  |  |  |  |  | 17 ± 9 |  |  | Emax (mCB1R): < 70%; Ki (mCB2R [1]): 347 nM; EC50 (mCB2R [2]): 151 nM; Emax (mCB2R [2]): 48%; Emax (hCB2R [3]): 31 ± 4%; Emax (hCB2R [4]): 62 ± 2%
3 | CCCn1c(C)c(C(=O)c2cccc3ccccc23)c2ccccc21 [JWH015] |  | -4 ± 12 | 94 | 6.63 ± 0.21 |  | 7.64 ± 0.24 |  |  |  |  |  | < 5 | 93 | Emax cAMP mCB1R (mCB1R; normalized to 10 µM CP55940): 29%
4 | COc1ccc(C(=O)c2c(C)n(CCN3CCOCC3)c3cc(I)ccc23)cc1 [AM630] | 13 | -4 ± 11 | 65 | 7.66 ± 0.23 | -65 | 7.93 ± 0.3 | -22 ± 2 | 6.75 ± 0.20 | -92 ± 4 | 5.09 ± 0.06 |  | < 5 |  | 
5 | CCCCCCC(C)(C)c1ccc([C@@H]2C[C@H](O)CC[C@H]2CCCO)c(O)c1 [CP55940] |  |  |  |  |  |  |  |  |  |  | 10 ± 8 |  |  | EC50 (mCB1R; pEC50 ± SEM cAMP mCB1R): 0.00603 nM; Emax (mCB1R): 100%; inhibition at 10 µM (5-HT2B (h); 10 µM): 96%; Ki (mCB2R [1]; [5]): 0.603 nM; EC50 (mCB2R [2]; [6]): 0.0676 nM; Emax (mCB2R [2]): 100%; Emax (hCB2R [3]): 95 ± 4%
6 | CN1CCCC[C@@H]1Cn1cc(C(=O)c2cc([N+](=O)[O-])ccc2I)c2ccccc21 [(R)-AM1241] | 32 | 21 ± 5 |  | 7.59 ± 0.11 | -22 | 6.17 ± 0.23 | 33 ± 2 | 7.40 ± 0.50 | 75 ± 9 | 7.84 ± 0.29 |  | 5.08 ± 0.16 |  | CB2R Selectivity (binding, mouse) (mCB2R [1]; 10^(pKi CB2R-pKi CB1R)): 17 fold; CB2R Selectivity cAMP (mouse) (mCB2R [2]): 12 fold; hCB2R Selectivity GTPγS (hCB2R [3]; 10^(pEC50 CB2R-pEC50 CB1R)): 4 fold; CB2R Selectivity pERK (hCB2R [4]; 10^(pEC50 CB2R-pEC50 CB1R)): 151 fold
7 | CN1CCCC[C@H]1Cn1cc(C(=O)c2cc([N+](=O)[O-])ccc2I)c2ccccc21 [(S)-AM1241] | 16 | 33 ± 7 | 93 | 6.74 ± 0.2 | 35 | 7.6 ± 0.3 | 47 ± 5 |  | 60 ± 11 | 6.92 ± 0.22 |  | 5.43 ± 0.42 |  | CB2R Selectivity (binding, mouse) (mCB2R [1]; 10^(pKi CB2R-pKi CB1R)): 2 fold; CB2R Selectivity cAMP (mouse) (mCB2R [2]): 148 fold
8 | CCCCC/C=C\C/C=C\C/C=C\C/C=C\CCCC(=O)OC(CO)CO [2-AG, 2-arachidonoyl glycerol] |  |  |  |  |  |  |  |  |  |  | -1 ± 12 |  |  | EC50 (mCB1R; mouse brain, read-out: pEC50 ± SEM cAMP mCB1R (converted)): > 6310 nM and 6920 nM; Ki (mCB2R [1]; [5]): 29.5 nM; EC50 (mCB2R [2]; [6]): 70.8 nM; Emax (mCB2R [2]): 53%; Emax (hCB2R [3]): 57 ± 11%; EC50 (hCB2R [3]; read-out: pEC50 ± SEM GTPγS hCB2R (converted)): 646 nM; EC50 (hCB2R [4]; pEC50 ± SEM pERK hCB2R): 3890 nM and > 3160 nM; Emax (hCB2R [4]): 99 ± 11%
9 | Cc1c(C(=O)c2cccc3ccccc23)c2cccc3c2n1[C@H](CN1CCOCC1)CO3 [WIN55212-2] |  | 8 ± 6 | 70 | 7.28 ± 0.17 |  | 8.37 ± 0.23 |  |  |  |  |  |  | 97 | 
10 | SR144528 |  | 8 ± 10 | 22 |  |  |  |  |  |  |  |  |  | -100 | Emax cAMP mCB1R (mCB1R; normalized to 10 µM CP55940): -39%; Emax ± SEM GTPγS hCB2R (hCB2R [3]; [7]): -29 ± 2%; Emax ± SEM pERK hCB2R (hCB2R [4]; normalized to 10 µM CP55940): -99 ± 3%
11 | Cc1ccc2c(c1)Cc1c(C(=O)NN3CCCCC3)nn(-c3ccc(Cl)cc3Cl)c1-2 [Gp-1a] |  | 3 ± 5 | 29 | 7.68 ± 0.23 |  | 7.25 ± 0.32 |  | 7.09 ± 0.07 |  |  |  | 5.86 ± 0.42 | -25 | Emax cAMP mCB1R (mCB1R; normalized to 10 µM CP55940): -28%; CB2R Selectivity (binding, mouse) (mCB2R [1]; 10^(pKi CB2R-pKi CB1R)): 20 fold; CB2R Selectivity cAMP (mouse) (mCB2R [2]): 25 fold; Emax ± SEM GTPγS hCB2R (hCB2R [3]; [7]): -14 ± 5%; Emax ± SEM pERK hCB2R (hCB2R [4]; normalized to 10 µM CP55940): 5 ± 6%
12 | CN1CCCCC1Cn1cc(C(=O)c2cc([N+](=O)[O-])ccc2I)c2ccccc21 (racemic) [(rac)-AM1241] | 21 | 29 ± 11 |  | 7.73 ± 0.25 | -6 | 7.03 ± 0.26 | 56 ± 9 | 6.89 ± 0.66 | 32 ± 12 | 7.6 ± 0.88 |  |  |  | pEC50 ± SEM cAMP mCB1R (mCB1R): < 5; CB2R Selectivity (binding, mouse) (mCB2R [1]): 66 fold; hCB2R Selectivity GTPγS (hCB2R [3]): 0.03; CB2R Selectivity pERK (hCB2R [4]): 339
13 | CCCCCCC(C)(C)c1cc(OC)c(C2=C[C@H]3CC[C@]2(CO)C3(C)C)c(OC)c1 [HU910] |  | 8 ± 13 | 87 | 6.88 ± 0.17 |  | 8.98 ± 0.38 |  | 7.27 ± 0.12 |  |  |  | < 5 | 67 | Emax cAMP mCB1R (mCB1R; normalized to 10 µM CP55940): 36%; Emax ± SEM GTPγS hCB2R (hCB2R [3]; [7]): 61 ± 13%; pEC50 ± SEM pERK hCB2R (hCB2R [4]; antagonists in presence of EC80 of CP55940): 5.50 ± 0.10 and < 5.5; Emax ± SEM pERK hCB2R (hCB2R [4]; normalized to 10 µM CP55940): 104 ± 9%
14 | Cc1c(C(=O)NN2CCCCC2)nn(-c2ccc(Cl)cc2Cl)c1-c1ccc(I)cc1 [AM251] |  | 10 ± 12 | 28 |  |  |  | -29 ± 2 |  | -90 ± 3 |  |  |  |  | 
15 | CCCCCCC(C)(C)c1cc(OC)c([C@@H]2C=C(CO)[C@@H]3C[C@H]2C3(C)C)c(OC)c1 [HU308] |  |  |  |  |  |  |  |  |  |  | 2 ± 7 |  |  | EC50 (mCB1R; pEC50 ± SEM cAMP mCB1R, mouse brain): > 10000 nM; Emax (mCB1R): 10%; inhibition at 10 µM (5-HT2B (h)): 28%; Ki (mCB2R [1]): 70.8 nM; EC50 (mCB2R [2]): 3.72 nM; Emax (mCB2R [2]): 56%; Emax (hCB2R [3]): 97 ± 12%; Emax (hCB2R [4]): 93 ± 2%
16 | Cc1c(C(=O)NN2CCCCC2)nn(-c2ccc(Cl)cc2Cl)c1-c1ccc(Cl)cc1 [SR141716A] |  |  |  |  |  |  |  |  |  |  | 0 |  |  | inhibition at 10 µM (5-HT2B (h); 10 µM): 16%
